The values that follow come from patent publication US9296754B2, “Compounds and compositions for the treatment of parasitic diseases” (Novartis AG, priority 2013, dated 2016).

The test system of experiment [1] is Trypanosoma brucei Lister 427 strain, bloodstream form. The experiment in a line: Proliferation of Trypanosoma brucei (Cell Titer Glo). The class given is cell-based. To be noted: 48 hours, read-out: T. brucei EC50. An excerpt:
Assay for Proliferation of Kinetoplastid Parasite Trypanosoma brucei. The proliferation is quantified by the addition of Cell Titer Glo (Promega®) a luminescent cell viability assay that measures the number of viable cells in culture based on the quantification of cellular ATP amount, which is an indicator of metabolically active cells. The following assay illustrates the invention without in any way limiting the scope of the invention. This parasite proliferation assay measures the increase in parasite growth using an assay that measures ATP activity, Cell Titer Glo®. […] Then 25 μl of a suspension of T. brucei culture in HMI-9 media is dispensed into the assay plates. […] The plates are then read for luminescence.

Experiment [2] relates to Leishmania donovani axenic amastigote parasites. The experiment in a line: Leishmania donovani axenic amastigote proliferation assay (Cell TiterGlo luminescence). To be noted: 48 h, axenic amastigotes, 2 day incubation, read-out: L. donovani amastigotes EC50. The class given is cell-based. As for the experimental part: Leishmania donovani Axenic Amastigote Proliferation Assay […] At the same time control compounds and DMSO are added to plates to serve as the positive and negative controls, respectively. 40 μL of parasite culture (9600 parasites) are then added to the plate wells. The plates are then placed into incubators. After 2 day incubation, 20 μL of Cell TiterGlo (Promega) is added to the plate wells. The luminescence signal of each well is measured using the Envision reader (Perkin Elmer).
For orientation: In ATP-based viability assays light output follows the ATP content of the culture.

For `CON(C)C(=O)Nc1cccc(-c2cn3cc(NC(=O)OC(C)C)cnc3n2)c1` [Compound 14, propan-2-yl N-[2-(3-{[methoxy(methyl)carbamoyl]amino}phenyl)imidazo[1,2-a]pyrimidin-6-yl]carbamate], the results for the EC50 in experiment [1] and in experiment [2] were 479 nM and 4200 nM, respectively.

A word on the EC50: it is the concentration that produces a half-maximal response.
